Active and inactive are the calls of the source. No cut-off for these calls is given here.
Legend:
[1] = Binding affinity to poly(dA.dT)2 oligonucleotide DNA (unknown origin) assessed as change in ICD signals by CD spectroscopy
[2] = Binding affinity to poly(dA.dT)2 oligonucleotide DNA (unknown origin) assessed as increase in DNA thermal melting temperature at 15 uM spectrophotometry
[3] = tested on: Salmonidae; assay: Binding affinity to salmon sperm DNA assessed as change in ICD signals by CD spectroscopy
[4] = Binding affinity to poly(dA).poly(dT) oligonucleotide DNA (unknown origin) assessed as increase in DNA thermal melting temperature at 15 uM spectrophotometry
[5] = tested on: Salmonidae; assay: Binding affinity to salmon sperm DNA assessed as increase in DNA thermal melting temperature at 15 uM spectrophotometry
[6] = Binding affinity to (CG)4 DNA hairpin sequence (unknown origin) by SPR assay
[7] = Binding affinity to AATT DNA hairpin sequence (unknown origin) by SPR assay
[8] = Binding affinity to (AT)4 DNA hairpin sequence (unknown origin) by SPR assay
[9] = Selectivity index, ratio of binding affinity to (AT)4 DNA hairpin sequence (unknown origin) to binding affinity to AATT DNA hairpin sequence (unknown origin)
[10] = Binding affinity to poly(dG.dC)2 oligonucleotide DNA (unknown origin) assessed as change in ICD signals by CD spectroscopy
[11] = Binding affinity to poly(dA.dT)2 oligonucleotide DNA (unknown origin) by UV spectroscopy
[12] = Binding affinity to poly(dG.dC)2 oligonucleotide DNA (unknown origin) by UV spectroscopy
[13] = tested on: Salmonidae; assay: Binding affinity to salmon sperm DNA by UV spectroscopy

Row | Activity [1] | ΔTm [2] [°C] | Activity [3] | ΔTm [4] [°C] | ΔTm [5] [°C] | K [6] [×10⁵ /M] | K [7] [×10⁵ /M] | K [8] [×10⁵ /M] | Selectivity Index [9] | Activity [10] | K [11] [×10⁵ /M] | K [12] [×10⁵ /M] | K [13] [×10⁵ /M] | SMILES
1 | inactive | -3 | inactive | 4 | 4 | – | – | – | – | – | – | – | – | N=C(N)Nc1ccc2c(c1)Cc1ccc(NC(=N)N)cc1C2
2 | – | – | – | – | – | 6.5 | 5.7 | 12.2 | < 2.4 | – | – | – | – | Nc1ccc2cc3ccc(N)cc3nc2c1
3 | – | – | – | – | – | < 1 | < 1 | 1.5 | < 2.4 | – | – | – | – | c1cc(NC2=NCCN2)cc(Oc2ccc(NC3=NCCN3)cc2)c1
4 | inactive | 1 | inactive | 12 | 20 | 5.5 | 2.7 | 5.1 | < 2.4 | – | – | – | – | c1cc2c(cc1NC1=NCCN1)Cc1ccc(NC3=NCCN3)cc1C2

The remaining lines, values behind:

Row | SMILES | Activity [1] | ΔTm [2] [°C] | Activity [3] | ΔTm [4] [°C] | ΔTm [5] [°C] | K [6] [×10⁵ /M] | K [7] [×10⁵ /M] | K [8] [×10⁵ /M] | Selectivity Index [9] | Activity [10] | K [11] [×10⁵ /M] | K [12] [×10⁵ /M] | K [13] [×10⁵ /M]
5 | c1cc(NC2=NCCN2)ccc1CCc1ccc(NC2=NCCN2)cc1 | – | – | – | – | – | < 1 | < 1 | 1 | < 2.4 | – | – | – | –
6 | c1cc(C2CCN(c3ccc(NC4=NCCN4)cc3)CC2)ccc1NC1=NCCN1 | – | – | – | – | – | 1.5 | 1.1 | 1.4 | < 2.4 | – | – | – | –
7 | N=C(N)Nc1ccc2c(c1)Cc1ccc(NC3=NCCN3)cc1-2 | Active | 22 | Active | 20 | 4 | – | – | – | – | Active | – | – | –
8 | c1cc2c(cc1NC1=NCCN1)Cc1ccc(NC3=NCCN3)cc1-2 | Active | 26 | Active | 31 | 9 | 6.5 | 15 | 36.2 | < 2.4 | – | 14 | 9.2 | 1.9
9 | c1cc(NC2=NCCN2)cc(Sc2ccc(NC3=NCCN3)cc2)c1 | – | – | – | – | – | 2.5 | 1.6 | 3.2 | < 2.4 | – | – | – | –

— ChEMBL document CHEMBL3351880, “Unexpected DNA affinity and sequence selectivity through core rigidity in guanidinium-based minor groove binders” (J Med Chem, 2014)
